Data: US4921855A, “New Histidyl amino acid derivatives, and pharmaceutical composition comprising the same” (Fujisawa Pharmaceutical Co., Ltd., priority 1987, dated 1990)

Columns and labels:
[1] = molecular target: T1, renin (Homo sapiens, UniProt P00797); assay: Inhibition of human plasma renin activity (angiotensin I formation, RIA); type: biochemical; conditions: endogenous renin and angiotensinogen, pH 6.0, 37° C, 90 minutes, RIA of Ang I
T1 construct: endogenous renin and angiotensinogen in plasma; from tissue; host or cells: pooled human plasma (EDTA) from male volunteers
T1 sequence (P00797 67-406): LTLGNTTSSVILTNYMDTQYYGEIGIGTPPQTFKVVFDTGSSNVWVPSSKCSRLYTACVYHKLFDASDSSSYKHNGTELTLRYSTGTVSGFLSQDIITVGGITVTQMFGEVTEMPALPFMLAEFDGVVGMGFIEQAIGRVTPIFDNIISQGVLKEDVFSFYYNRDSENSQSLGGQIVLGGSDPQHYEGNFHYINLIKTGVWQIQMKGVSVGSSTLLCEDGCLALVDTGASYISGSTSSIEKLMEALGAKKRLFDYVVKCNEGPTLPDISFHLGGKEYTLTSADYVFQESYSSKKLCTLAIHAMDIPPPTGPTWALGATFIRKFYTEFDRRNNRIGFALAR
Experimental: Human plasma was collected from male volunteers pretreated with no drugs and used as a pool. Disodium salt of ethylenediaminetetraacetic acid (EDTA) was used as the anticoagulant. Plasma renin activity was measured as the rate of angiotensin I (Ang I) formation after incubation (37° C) of the endogenous renin and angiotensinogen in plasma at pH 6.0. The incubation mixture contained 250 μl of plasma, 5 μl of (phenylmethyl)sulfonyl fluoride, 30 μl of buffer (sodium, potassium-phosphate, pH 6.0), and 15 μl of an appropriate concentration of test compound in 50% ethyl alcohol-water vehicle. The Ang I formed after 90 minutes of incubation was measured by radioimmunoassay (RIA) which was carried out with a commercial kit, RENCTK 100 (manufactured by Commissariat A L'energic Atomique). Samples were incubated in duplicate and each tube was measured in duplicate in the RIA. Percentage inhibition of plasma renin activity was calculated by comparing the amount of Ang I produced with and without a test compound. The concentration of test compound that inhibited plasma renin activity by 50% (IC50) was determined by Probit method.

[2] = tested on: mean arterial blood pressure (MAP); assay: Hypotensive effect after oral administration to conscious sodium-depleted cynomolgus monkeys (maximum percentage fall of MAP); type: in vivo, cynomolgus monkeys (Macaca fascicularis); conditions: 0-6 hours
Experimental: (§1) Male or female cynomolgus monkeys (Macaca fascicularis) weighing about 2.5-3.5 kg were used. Sodium depletion was achieved by administering furosemide, 15 mg/kg subcutaneously one day before and then 10 mg/kg intravenously 30 minutes before the administration of the test compound.
(§2) Test compounds were dissolved in diluted equimolar hydrochloric acid (pH 5-6) and orally administered to conscious and trained monkeys placed in restraining chairs with pneumatic cuff positioned around the arm for oscillometric measurement of mean arterial blood pressure (MAP) (Model BP-203 NPJ, manufactured by Nippon Colin).
The Map was measured at 0 (predosing base line), 0.5, 1, 2, 3, 4 and 6 hours after administration of the test compound. The maximum hypotensive effect was calculated as the maximum percentage fall of MAP from the pretreatment value.

[3] = tested on: plasma renin; assay: Inhibition of plasma renin activity (PRA) after oral administration to sodium-depleted cynomolgus monkeys; type: in vivo, cynomolgus monkeys (Macaca fascicularis); conditions: sodium-depleted conscious monkeys, 0-6 hours
Experimental: as §1, §2
Blood samples were collected at 0, 0.5, 1, 2, 4 and 6 hours after dosing from the antecubital vein of the monkey into disodium salt of EDTA coated tubes, centrifuged for 10 min. (3000 rpm, 4° C.) and plasma was obtained for determination of plasma renin activity (PRA). PRA was measured as the rate of Ang I formation with the same principle as illustrated in Test 1. 100 μl of sample plasma was mixed with 100 μl of the solution of angiotensinase inhibitors (3 mM 8-hydroxyquinoline sulfate and 5 mM 2,3-dimercaptopropanol, SB-REN-1, SORIN BIOMEDICA, Italy). Half (100 μl) of the mixture was incubated at 37° C. for one hour and Ang I formed was determined by a commercial RIA kit (DINABOTT). The remaining half (100 μl) of the reaction mixture was kept at 4° C. for one hour to measure and correct for the preexisting Ang I in the plasma. Percentage inhibition of PRA was calculated by the following formula: [formula]
A37 : the amount of angiotensin I formed by incubation at 37° C. of plasma collected before dosing the test compound
A4 : the amount of angiotensin I formed by keeping at 4° C. of plasma collected before dosing the test compound
D37 : the amount of angiotensin I formed by incubation at 37° C. of plasma collected after dosing the test compound
D4 : the amount of angiotensin I formed by keeping at 4° C. of plasma collected after dosing the test compound.

Row | IC50 [1] | Compound | Maximum hypotensive effect (%) ([2]; 3.2 mg/kg (po)) | Maximum inhibition of PRA (%) ([3]; 3.2 mg/kg (po)) | Maximum hypotensive effect (%) ([2]; 32 mg/kg (po)) | Maximum inhibition of PRA (%) ([3]; 32 mg/kg (po))
1 | 4 nM | CC(C)CC[C@H](O)[C@H](CC1CCCCC1)NC(=O)[C@H](Cc1c[nH]cn1)N(C)C(=O)[C@H](Cc1ccccc1)OC(=O)N(C)CCN(C)C(=O)N1CCOCC1 [(23)] | 19% | 99% |  | 
2 | 8.7 nM | CC(C)CC[C@H](O)[C@H](CC1CCCCC1)NC(=O)[C@H](Cc1c[nH]cn1)N(C)C(=O)[C@H](Cc1ccccc1)OC(=O)N(C)CCN(C)C(=O)C(C)C [(24)] | 15% | 93% |  | 
3 | 25 nM | CC(C)CC[C@H](O)[C@H](CC1CCCCC1)NC(=O)[C@H](Cc1c[nH]cn1)N(C)C(=O)[C@H](Cc1ccccc1)OC(=O)N(C)CCC(=O)N1CCOCC1 [(5)] |  |  | 18% | 92%
